pIC50: −log10 of the molar value. Where a name gives a salt, the structure may show the parent alone.
Columns and labels:
PTP-H1 = target: T1, PTP-H1 (Homo sapiens, UniProt P26045); assay: PTP Enzyme Assay (DiFMUP), PTP-H1; assay type: biochemical; settings: 5 μM DiFMUP substrate; catalytic core of human recombinant PTP; triplicates; read-out: IC50 value in respect of PTP-H1
T1 construct: using the catalytic core of a human recombinant PTP as the enzyme
T1 sequence (P26045 646-901 limits assumed): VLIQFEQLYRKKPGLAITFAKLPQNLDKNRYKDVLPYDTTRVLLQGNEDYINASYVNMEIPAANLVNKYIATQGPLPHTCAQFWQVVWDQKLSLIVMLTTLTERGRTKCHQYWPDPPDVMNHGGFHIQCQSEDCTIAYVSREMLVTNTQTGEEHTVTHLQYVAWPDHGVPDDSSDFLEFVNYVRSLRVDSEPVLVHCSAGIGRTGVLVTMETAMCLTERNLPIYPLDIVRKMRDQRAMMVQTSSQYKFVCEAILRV
Procedure: (§1) The PTP Enzyme Assay aims at determining the extent of inhibition of PTPs, e.g. of PTP1B, SHP-1, SHP-2, GLEPP-1 or PTP-H1 in the presence of a test compound of formula (I) or (I′). The inhibition is illustrated by IC50 values which denote the concentration of test compound necessary to achieve an inhibition of 50% of said PTP's using the following concentration of the PTP substrate DiFMUP: • 5 μM DiFMUP for PTP1B and PTP-H1; • 20 μM DiFMUP for SHP-1 and SHP-2. • 30 μM DiFMUP for GLEPP-1. a) PTPs Cloning
(§2) The DiFMUP assay allows to follow the dephosphorylation of DiFMUP (6,8-DiFluoro-4-MethylUmbelliferyl Phosphate)—which is the PTP substrate—mediated by PTP into its stable hydrolysis product, i.e. DiFMU (6,8-difluoro-7-hydroxy coumarin). Due to its rather low pKa and its high quantum yield, DiFMU allows to measure both acidic and alkaline phosphatase activities with a great sensitivity.
(§3) Assays were performed in a 96 well plate format, using the catalytic core of a human recombinant PTP as the enzyme and 6,8-DiFluoro-4-MethylUmbelliferyl Phosphate (DiFMUP, Molecular Probes, D-6567) as a substrate. Compounds to be tested were dissolved in 100% DMSO at a concentration of 2 mM. Subsequent dilutions of the test compounds (to yield a concentration of 100, 30, 10, 3, 1, 0.3, 0.1, 0.03, 0.01, 0.001 μM) wore performed in 60% DMSO manually. 8 μl of diluted compound or vehicle (60% DMSO=control) was distributed to a black Costar 96 well plate. 42 μl of human recombinant PTP enzyme diluted in assay buffer (20 mM Tris HCl pH 7.5, 0.01% IGEPAL CA-630, 0.1 mM ethylenediaminetetracetic acid, 1 mM DL-Dithiothreitol) can be added to the dilutions of compound or vehicle (distributed to a black Costar 96 well plate), followed by 50 μl of DiFMUP diluted in the assay buffer. The reaction ran for 30 minutes at room temperature before reading the fluorescence intensity (integral or intensity) on a Perkin-Elmer Victor 2 spectrofluorimeter (excitation of 6,8-difluoro-7-hydroxy coumarin is at 355 nm, the emission at 460 nm, for 0.1 s). The percentage of inhibition is determined by measuring the relative fluorescence ion absence of a test compound (PTP inhibitor), i.e. with the solvent alone (5% DMSO). The IC50 values for inhibition were determined in triplicates.

PTP1B = target: T2, PTP1B (Homo sapiens, UniProt P18031); assay: PTP Enzyme Assay (DiFMUP), PTP1B; assay type: biochemical; settings: 5 μM DiFMUP substrate; catalytic core of human recombinant PTP; triplicates; read-out: IC50 value in respect of PTP1B
T2 construct: using the catalytic core of a human recombinant PTP as the enzyme; made in house
T2 sequence (P18031 3-277 limits assumed): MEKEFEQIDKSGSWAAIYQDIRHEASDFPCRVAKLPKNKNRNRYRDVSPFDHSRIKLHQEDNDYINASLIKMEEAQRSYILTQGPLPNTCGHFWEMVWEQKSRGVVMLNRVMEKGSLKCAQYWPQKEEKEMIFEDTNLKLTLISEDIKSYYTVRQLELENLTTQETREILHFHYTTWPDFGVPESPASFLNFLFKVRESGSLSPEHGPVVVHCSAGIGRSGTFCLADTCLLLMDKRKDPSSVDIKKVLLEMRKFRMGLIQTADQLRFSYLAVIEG
Procedure: as §1
The cloning and expression of the catalytic domain e.g. of PTP1B, may be performed as described in J. Biol. Chem. 2000, 275(13), pp 9792-9796.
as §2, §3

GLEPP-1 = target: T3, GLEPP-1 (Homo sapiens, UniProt Q16827); assay: PTP Enzyme Assay (DiFMUP), GLEPP-1; assay type: biochemical; settings: 30 μM DiFMUP substrate; catalytic core of human recombinant PTP; triplicates; read-out: IC50 value in respect of GLEPP-1
T3 construct: using the catalytic core of a human recombinant PTP as the enzyme
T3 sequence (Q16827 938-1195 limits assumed): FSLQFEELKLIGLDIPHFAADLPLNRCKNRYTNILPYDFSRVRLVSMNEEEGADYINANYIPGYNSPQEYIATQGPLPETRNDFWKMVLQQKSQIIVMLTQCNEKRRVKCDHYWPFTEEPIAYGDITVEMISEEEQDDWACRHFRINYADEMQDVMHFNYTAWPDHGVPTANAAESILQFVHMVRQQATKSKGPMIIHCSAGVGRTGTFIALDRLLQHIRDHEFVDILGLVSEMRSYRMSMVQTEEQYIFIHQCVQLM
Procedure: as §1, §2, §3

SHP-2 = target: T4, SHP-2 (Homo sapiens, UniProt Q06124); assay: PTP Enzyme Assay (DiFMUP), SHP-2; assay type: biochemical; settings: 20 μM DiFMUP substrate; catalytic core of human recombinant PTP; triplicates; read-out: IC50 value in respect of SHP-2
T4 construct: using the catalytic core of a human recombinant PTP as the enzyme
T4 sequence (Q06124 247-517 limits assumed): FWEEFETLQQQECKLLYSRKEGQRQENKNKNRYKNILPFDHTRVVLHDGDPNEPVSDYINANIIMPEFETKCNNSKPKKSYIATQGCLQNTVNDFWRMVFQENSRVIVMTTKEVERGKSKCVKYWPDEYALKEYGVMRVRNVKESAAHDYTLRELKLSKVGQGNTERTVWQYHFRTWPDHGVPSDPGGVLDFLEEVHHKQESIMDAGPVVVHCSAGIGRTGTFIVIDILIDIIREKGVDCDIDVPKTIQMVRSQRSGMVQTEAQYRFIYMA
Procedure: as §1, §2, §3

SHP-1 = target: T5, SHP-1 (Homo sapiens, UniProt P29350); assay: PTP Enzyme Assay (DiFMUP), SHP-1; assay type: biochemical; settings: 20 μM DiFMUP substrate; catalytic core of human recombinant PTP; triplicates; read-out: IC50 value in respect of SHP-1
T5 construct: using the catalytic core of a human recombinant PTP as the enzyme
T5 sequence (P29350 244-515 limits assumed): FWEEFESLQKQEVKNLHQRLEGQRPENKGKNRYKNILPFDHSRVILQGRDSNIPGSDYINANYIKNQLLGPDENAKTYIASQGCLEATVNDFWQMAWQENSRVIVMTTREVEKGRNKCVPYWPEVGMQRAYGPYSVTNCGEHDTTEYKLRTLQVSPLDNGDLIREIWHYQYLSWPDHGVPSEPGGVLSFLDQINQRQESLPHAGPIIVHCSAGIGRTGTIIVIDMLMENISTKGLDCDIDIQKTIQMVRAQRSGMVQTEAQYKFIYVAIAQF
Procedure: as §1, §2, §3

db/db mice = assay: In vivo assay in db/db mice (postprandial glycemia); settings: 4 hrs after drug administration, expressed as a percentage of control (vehicle, Group 1)
Procedure: The following assay aims at determining the anti-diabetic effect of the test compounds of formula (I) or (I′) in a model of postprandial glycemia in db/db mice, in vivo.
A total of 18 db/db mice (about 8-9 weeks; obtained from IFFACREDO, l'Arbreste, France) were fasted during 20 hours.
3 groups, each consisting of 6 animals were formed: • Group 1: The animals were administered (per os) a dose of 10 mL/kg of vehicle (control). • Group 2: The animals were administered (per os) a dose of 30 mg/kg of the test compound according to formula (I) solubilized in the vehicle. • Group 3: The animals were administered (per os) a dose of 100 mg/kg of the test compound according to formula (I) solubilized in the vehicle.
After oral administration of the compounds of formula (I) or (I′) solubilized or suspended in CarboxyMethylCellulose (0.5%), Tween 20 (0.25%) in water as vehicle, the animals had access to commercial food (D04, UAR, Villemoisson/Orge, France) ad libitum. The diabetic state of the mice was verified by determining the blood glucose level before fasting. Blood glucose and serum insulin levels were then determined 4 hrs after drug administration.
The determination of the blood glucose level was performed using a glucometer (Ascensia Dex^2, Bayer, ref 3956C).
The determination of the Insulin level was performed using an ELISA kit (Mercodia, ref 10-1149-10).
Changes in blood glucose and serum insulin of drug treated mice were expressed as a percentage of control (group 1: vehicle treated mice).

pIC50 (PTP-H1) | pIC50 (PTP1B) | pIC50 (GLEPP-1) | pIC50 (SHP-2) | pIC50 (SHP-1) | SMILES | Decrease in blood glucose (db/db mice; Group 2: 30 mg/kg per os) [%] | Decrease in serum insulin (db/db mice; Group 2: 30 mg/kg per os) [%] | Decrease in blood glucose (db/db mice; Group 3: 100 mg/kg per os) [%] | Decrease in serum insulin (db/db mice; Group 3: 100 mg/kg per os) [%]
5.20 | 6.01 | 6.00 | 5.66 | 5.52 | CCCCc1ccc(C#Cc2ccc(CN(C(=O)C(C)(C)C)c3ccc(C(=O)O)c(O)c3)cc2)cc1 [Example 76, 4-[{4-[(4-butylphenyl)ethynyl]benzyl}(2,2-dimethylpropanoyl)amino]-2-hydroxybenzoic acid, N-methyl-D-glucamine (i.e. 1-deoxy-1-(methylamino)glucitol) salt] |  |  |  | 
5.00 | 6.31 | 5.80 | 5.72 | 5.43 | CCCCc1ccc(C#Cc2ccc(CN(C(=O)Cc3cccs3)c3ccc(F)c(C(=O)O)c3)cc2)cc1 [Example 68, 5-[{4-[(4-butylphenyl)ethynyl]benzyl}(2-thienylacetyl)amino]-2-fluorobenzoic acid, N-methyl-D-glucamine (i.e. 1-deoxy-1-(methylamino)glucitol) salt] |  |  |  | 
5.47 | 6.31 | 6.21 | 6.31 | 5.92 | CCCCCCCCC#Cc1ccc(CN(C(=O)CCC2CCCC2)c2ccc(O)c(C(=O)O)c2)cc1 [Example 2, 5-[(3-cyclopentylpropanoyl)(4-dec-1-ynylbenzyl)amino]-2-hydroxybenzoic acid. N-methyl-D-glucamine (i.e. 1-deoxy-1-(methylamino)glucitol) salt] | 28 | 84 | 58 | 88
5.24 | 6.54 | 6.68 | 5.85 | 5.80 | CCCCCCCCC#Cc1ccc(CN(Cc2ccc(OCC(=O)O)c(C(=O)O)c2)C(=O)/C=C/c2ccccc2)cc1 [Example 16, 2-(carboxymethoxy)-5-({(4-dec-1-ynylbenzyl)[(2E)-3-3-phenylprop-2-enoyl]amino}methyl)benzoic acid] |  |  |  | 
